Measured values taken from US6737383B1, “Herbicidal oxadiazolidines” (priority 1999, dated 2004).

Experiments:
velvetleaf = experiment: Test B pre/postemergence velvetleaf; format: in vivo, Abutilon theophrasti
Summary of the method: (§1)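 Test chemicals in a non-phytotoxic solvent mixture with surfactant were sprayed preemergence onto planted seeds and postemergence onto plants 2 to 18 cm tall (1- to 4-leaf stage). After twelve to sixteen days in a greenhouse, injury was visually rated against untreated controls from 0 (no effect) to 10 (complete control).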

purple nutsedge = experiment: Test B pre/postemergence purple nutsedge; format: in vivo, Cyperus rotundus
Summary of the method: as §1

morningglory = experiment: Test B pre/postemergence morningglory; format: in vivo, Ipomoea hederacea
Summary of the method: as §1

rape = experiment: Test B pre/postemergence rape; format: in vivo, Brassica napus
Summary of the method: as §1

giant foxtail = experiment: Test B pre/postemergence giant foxtail; format: in vivo, Setaria faberii
Summary of the method: as §1

duck salad = experiment: Test B flood test duck salad; format: in vivo, Heteranthera limosa
Summary of the method: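 Flood test on plants grown to the 2-leaf stage; treated plants kept in greenhouse twelve to sixteen days, then visually rated against controls on a 0 (no effect) to 10 (complete control) scale.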

bedstraw = experiment: Test B pre/postemergence bedstraw; format: in vivo, Galium aparine
Summary of the method: as §1

wheat = experiment: Test B pre/postemergence wheat; format: in vivo, Triticum aestivum
Summary of the method: as §1

pigweed = experiment: Test B pre/postemergence pigweed; format: in vivo, Amaranthus retroflexus
Summary of the method: as §1

corn = experiment: Test B pre/postemergence corn; format: in vivo, Zea mays
Summary of the method: as §1

soybean = experiment: Test B pre/postemergence soybean; format: in vivo, Glycine max
Summary of the method: as §1

surinam grass = experiment: Test B pre/postemergence surinam grass; format: in vivo, Brachiaria decumbens
Summary of the method: as §1

crabgrass = experiment: Test B pre/postemergence crabgrass; format: in vivo, Digitaria sanguinalis
Summary of the method: as §1

cocklebur = experiment: Test B pre/postemergence cocklebur; format: in vivo, Xanthium strumarium
Summary of the method: as §1

sugar beet = experiment: Test B pre/postemergence sugar beet; format: in vivo, Beta vulgaris
Summary of the method: as §1

[1] = Preemergence, Rate 62 g/ha, scale of 0 to 10 where 0 is no effect and 10 is complete control
[2] = Preemergence, Rate 250 g/ha, scale of 0 to 10 where 0 is no effect and 10 is complete control
[3] = Preemergence, Rate 500 g/ha, scale of 0 to 10 where 0 is no effect and 10 is complete control
[4] = Rate 62 g/ha, Postemergence, scale of 0 to 10 where 0 is no effect and 10 is complete control
[5] = Rate 125 g/ha, Postemergence, scale 0 to 10
[6] = Rate 125 g/ha, Preemergence, scale of 0 to 10 where 0 is no effect and 10 is complete control
[7] = Rate 500 g/ha, Postemergence, scale 0 to 10, 0 no effect, 10 complete control

SMILES: COc1cc(C)cc(C)c1-n1c(=O)on(C(=O)N(c2ccc(F)cc2F)C(C)C)c1=O [Compound 223]
- Velvetleaf plant response rating (velvetleaf; [1]): 0
- Velvetleaf plant response rating (velvetleaf; [2]): 0
- Plant response rating, Velvetleaf (velvetleaf; [3]): 0
- Velvetleaf plant response rating (velvetleaf; [4]): 0
- Velvetleaf plant response rating (velvetleaf; [5]): 0
- Velvetleaf plant response rating (velvetleaf; [6]): 0
- Plant response rating (0 to 10; 0 is no effect, 10 is complete control), Velvetleaf (velvetleaf; Rate 250 g/ha, Postemergence): 2
- Velvetleaf plant response rating (velvetleaf; [7]): 3
- Nutsedge plant response rating (purple nutsedge; [1]): 0
- Nutsedge plant response rating (purple nutsedge; [4]): 0
- Nutsedge plant response rating (purple nutsedge; [5]): 0
- Nutsedge plant response rating (purple nutsedge; [6]): 0
- Plant response rating (0 to 10; 0 is no effect, 10 is complete control), Nutsedge (purple nutsedge; Rate 250 g/ha, Postemergence): 0
- Nutsedge plant response rating (purple nutsedge; [7]): 0
- Morningglory plant response rating (morningglory; [1]): 0
- Morningglory plant response rating (morningglory; [2]): 1
- Plant response rating, Morningglory (morningglory; [3]): 1
- Morningglory plant response rating (morningglory; [4]): 1
- Morningglory plant response rating (morningglory; [5]): 3
- Morningglory plant response rating (morningglory; [6]): 1
- Plant response rating (0 to 10; 0 is no effect, 10 is complete control), Morningglory (morningglory; Rate 250 g/ha, Postemergence): 4
- Morningglory plant response rating (morningglory; [7]): 6
- Rape plant response rating (rape; [1]): 0
- Rape plant response rating (rape; [2]): 0
- Plant response rating, Rape (rape; [3]): 0
- Rape plant response rating (rape; [4]): 0
- Rape plant response rating (rape; [5]): 0
- Rape plant response rating (rape; [6]): 0
- Plant response rating (0 to 10; 0 is no effect, 10 is complete control), Rape (rape; Rate 250 g/ha, Postemergence): 0
- Rape plant response rating (rape; [7]): 0
- Giant foxtail plant response rating (giant foxtail; [1]): 7
- Plant response rating, Giant foxtail (giant foxtail; [3]): 9
- Giant foxtail plant response rating (giant foxtail; [4]): 0
- Giant foxtail plant response rating (giant foxtail; [5]): 0
- Giant foxtail plant response rating (giant foxtail; [6]): 9
- Plant response rating (0 to 10; 0 is no effect, 10 is complete control), Giant foxtail (giant foxtail; Rate 250 g/ha, Postemergence): 0
- Giant foxtail plant response rating (giant foxtail; [7]): 1
- Ducksalad plant response rating (duck salad; Rate 62 g/ha, headed Pre-emergence (flood test species), scale 0 to 10 (0 no effect, 10 complete control)): 0
- Ducksalad plant response rating (duck salad; Rate 125 g/ha, Pre-emergence, flood test species, scale 0 to 10 where 0 is no effect and 10 is complete control): 0
- Ducksalad plant response rating (duck salad; Rate 250 g/ha, Pre-emergence, flood-test species, scale 0 to 10, 0 is no effect, 10 is complete control): 0
- Ducksalad plant response rating (duck salad; Rate 500 g/ha, Pre-emergence, flood test species, scale 0 to 10 (0 no effect, 10 complete control)): 0
- Bedstraw plant response rating (bedstraw; [1]): 0
- Bedstraw plant response rating (bedstraw; [2]): 0
- Plant response rating, Bedstraw (bedstraw; [3]): 3
- Bedstraw plant response rating (bedstraw; [4]): 3
- Bedstraw plant response rating (bedstraw; [5]): 3
- Bedstraw plant response rating (bedstraw; [6]): 0
- Plant response rating (0 to 10; 0 is no effect, 10 is complete control), Bedstraw (bedstraw; Rate 250 g/ha, Postemergence): 4
- Bedstraw plant response rating (bedstraw; [7]): 5
- Wheat plant response rating (wheat; [1]): 0
- Wheat plant response rating (wheat; [2]): 0
- Plant response rating, Wheat (wheat; [3]): 0
- Wheat plant response rating (wheat; [4]): 0
- Wheat plant response rating (wheat; [5]): 0
- Wheat plant response rating (wheat; [6]): 0
- Plant response rating (0 to 10; 0 is no effect, 10 is complete control), Wheat (wheat; Rate 250 g/ha, Postemergence): 0
- Wheat plant response rating (wheat; [7]): 0
- Redroot pigweed plant response rating (pigweed; [1]): 0
- Redroot pigweed plant response rating (pigweed; [2]): 7
- Plant response rating, Redroot pigweed (pigweed; [3]): 7
- Redroot pigweed plant response rating (pigweed; [4]): 0
- Redroot pigweed plant response rating (pigweed; [5]): 2
- Redroot pigweed plant response rating (pigweed; [6]): 0
- Plant response rating (0 to 10; 0 is no effect, 10 is complete control), Redroot pigweed (pigweed; Rate 250 g/ha, Postemergence): 3
- Redroot pigweed plant response rating (pigweed; [7]): 5
- Corn plant response rating (corn; [1]): 0
- Corn plant response rating (corn; [2]): 0
- Plant response rating, Corn (corn; [3]): 0
- Corn plant response rating (corn; [4]): 0
- Corn plant response rating (corn; [5]): 0
- Corn plant response rating (corn; [6]): 0
- Plant response rating (0 to 10; 0 is no effect, 10 is complete control), Corn (corn; Rate 250 g/ha, Postemergence): 0
- Corn plant response rating (corn; [7]): 0
- Soybean plant response rating (soybean; [1]): 0
- Soybean plant response rating (soybean; [2]): 0
- Plant response rating, Soybean (soybean; [3]): 0
- Soybean plant response rating (soybean; [4]): 3
- Soybean plant response rating (soybean; [5]): 3
- Soybean plant response rating (soybean; [6]): 0
- Plant response rating (0 to 10; 0 is no effect, 10 is complete control), Soybean (soybean; Rate 250 g/ha, Postemergence): 3
- Soybean plant response rating (soybean; [7]): 4
- B. signalgrass plant response rating (surinam grass; [1]): 0
- B. signalgrass plant response rating (surinam grass; Preemergence, Rate 250 g/ha, scale 0 to 10, 0 is no effect, 10 is complete control): 3
- Plant response rating, B. signalgrass (surinam grass; [3]): 4
- B. signalgrass plant response rating (surinam grass; [4]): 0
- B. signalgrass plant response rating (surinam grass; Rate 125 g/ha, Postemergence, scale 0 (no effect) to 10 (complete control)): 0
- B. signalgrass plant response rating (surinam grass; [6]): 0
- Plant response rating (0 to 10; 0 is no effect, 10 is complete control), B. signalgrass (surinam grass; Rate 250 g/ha, Postemergence): 0
- B. signalgrass plant response rating (surinam grass; [7]): 0
- Crabgrass plant response rating (crabgrass; [1]): 4
- Crabgrass plant response rating (crabgrass; [2]): 7
- Plant response rating, Crabgrass (crabgrass; [3]): 9
- Crabgrass plant response rating (crabgrass; [4]): 0
- Crabgrass plant response rating (crabgrass; [5]): 0
- Crabgrass plant response rating (crabgrass; [6]): 6
- Plant response rating (0 to 10; 0 is no effect, 10 is complete control), Crabgrass (crabgrass; Rate 250 g/ha, Postemergence): 1
- Crabgrass plant response rating (crabgrass; [7]): 3
- Cocklebur plant response rating (cocklebur; [1]): 0
- Cocklebur plant response rating (cocklebur; [2]): 0
- Plant response rating, Cocklebur (cocklebur; [3]): 0
- Cocklebur plant response rating (cocklebur; [4]): 0
- Cocklebur plant response rating (cocklebur; [5]): 0
- Cocklebur plant response rating (cocklebur; [6]): 0
- Plant response rating (0 to 10; 0 is no effect, 10 is complete control), Cocklebur (cocklebur; Rate 250 g/ha, Postemergence): 0
- Cocklebur plant response rating (cocklebur; [7]): 2
- Sugarbeets plant response rating (sugar beet; [1]): 0
- Sugarbeets plant response rating (sugar beet; [2]): 0
- Plant response rating, Sugarbeets (sugar beet; [3]): 0
- Sugarbeets plant response rating (sugar beet; [4]): 0
- Sugarbeets plant response rating (sugar beet; [5]): 1
- Sugarbeets plant response rating (sugar beet; [6]): 0
- Plant response rating (0 to 10; 0 is no effect, 10 is complete control), Sugarbeets (sugar beet; Rate 250 g/ha, Postemergence): 2
- Sugarbeets plant response rating (sugar beet; [7]): 3
